Experimental data taken from ChEMBL document CHEMBL3804767, “Discovery and Preclinical Evaluation of BMS-955829, a Potent Positive Allosteric Modulator of mGluR5” (ACS Med Chem Lett, 2016).
pEC50, pIC50, pKi: −log10 of the molar value. Activity calls are given as the source filed them. The calls are words filed in the database; no cut-off is given here.

Assays:
[1] = Protein binding in plasma (unknown origin); format: ADME, cell-free; conditions: read-out: PPB (converted)
[2] = test system: Mus musculus; experiment: Toxicity in C57/BL6 mouse assessed as death at 3 mg/kg, ip; format: organism-based; conditions: in vivo
[3] = test system: Mus musculus; experiment: Neurotoxicity in C57/BL6 mouse assessed as induction of convulsion at 3 mg/kg, ip; format: toxicity, organism-based; conditions: in vivo
[4] = biological target: Metabotropic glutamate receptor 6 (Homo sapiens) (UniProt O15303); experiment: Agonist activity at mGlu6 receptor (unknown origin)
Chain of Metabotropic glutamate receptor 6 (Homo sapiens) (O15303 whole entry): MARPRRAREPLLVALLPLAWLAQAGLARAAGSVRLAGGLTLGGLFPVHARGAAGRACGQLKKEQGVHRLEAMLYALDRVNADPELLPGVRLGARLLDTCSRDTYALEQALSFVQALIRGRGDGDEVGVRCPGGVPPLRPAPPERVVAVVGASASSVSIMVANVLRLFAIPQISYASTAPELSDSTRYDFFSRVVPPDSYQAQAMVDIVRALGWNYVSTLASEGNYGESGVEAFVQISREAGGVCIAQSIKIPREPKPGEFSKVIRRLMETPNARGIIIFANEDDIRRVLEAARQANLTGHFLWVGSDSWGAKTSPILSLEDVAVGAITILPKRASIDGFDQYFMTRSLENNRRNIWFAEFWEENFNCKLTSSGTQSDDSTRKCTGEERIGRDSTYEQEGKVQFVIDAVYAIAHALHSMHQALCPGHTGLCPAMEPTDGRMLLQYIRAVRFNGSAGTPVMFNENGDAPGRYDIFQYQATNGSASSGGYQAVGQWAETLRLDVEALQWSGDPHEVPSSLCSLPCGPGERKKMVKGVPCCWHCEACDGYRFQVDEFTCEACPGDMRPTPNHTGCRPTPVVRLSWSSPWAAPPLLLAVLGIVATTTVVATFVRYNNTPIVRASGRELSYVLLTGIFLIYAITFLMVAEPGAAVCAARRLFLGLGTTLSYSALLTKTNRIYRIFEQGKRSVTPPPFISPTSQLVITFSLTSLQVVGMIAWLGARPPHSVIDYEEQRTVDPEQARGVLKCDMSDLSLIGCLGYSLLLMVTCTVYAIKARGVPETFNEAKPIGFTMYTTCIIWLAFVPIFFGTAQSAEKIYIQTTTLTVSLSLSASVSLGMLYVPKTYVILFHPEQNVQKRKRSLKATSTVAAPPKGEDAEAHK

[5] = biological target: Metabotropic glutamate receptor 7 (Homo sapiens) (UniProt Q14831); experiment: Positive allosteric modulation of mGlu7 receptor (unknown origin)
[6] = test system: Mus musculus; experiment: Neurotoxicity in C57/BL6 mouse assessed as induction of convulsion at 30 mg/kg, ip; format: toxicity, organism-based; conditions: in vivo
[7] = biological target: Metabotropic glutamate receptor 6 (Homo sapiens) (UniProt O15303); experiment: Negative allosteric modulation of mGlu6 receptor (unknown origin)
[8] = test system: Rattus norvegicus; experiment: Neurotoxicity in rat assessed as neuronal necrosis in brain auditory complex at 100 mg/kg/day, po for 8 days by haematoxylin and eosin staining based assay; format: toxicity, organism-based; conditions: in vivo, 192 h
[9] = test system: Salmonella typhimurium; experiment: Mutagenicity in Salmonella typhimurium by Ames test; format: toxicity, organism-based; conditions: salmonella enterica subsp. enterica serovar typhimurium
[10] = biological target: Metabotropic glutamate receptor 4 (Homo sapiens) (UniProt Q14833); experiment: Negative allosteric modulation of mGlu4 receptor (unknown origin)
[11] = test system: Salmonella typhimurium; experiment: Mutagenicity in Salmonella typhimurium by Ames test in presence of s9 liver fraction; format: toxicity, organism-based; conditions: salmonella enterica subsp. enterica serovar typhimurium
[12] = test system: Rattus norvegicus; experiment: Receptor occupancy of mGlu5 receptor in Sprague-Dawley rat at 0.1 mg/kg, sc relative to control; format: functional
[13] = biological target: Metabotropic glutamate receptor 4 (Homo sapiens) (UniProt Q14833); experiment: Positive allosteric modulation of mGlu4 receptor (unknown origin)
[14] = Oral bioavailability in cynomolgus monkey at 1 mg/kg; format: ADME, organism-based, Macaca fascicularis; conditions: in vivo
[15] = species on record: Homo sapiens; experiment: Inhibition of sodium channel (unknown origin) at 10 uM by patch clamp method relative to control
[16] = test system: Rattus norvegicus; experiment: Neurotoxicity in rat assessed as neuronal necrosis in brain hippocampal slice at 100 mg/kg/day, po for 8 days by haematoxylin and eosin staining based assay; format: toxicity, organism-based; conditions: in vivo, 192 h
[17] = test system: Mus musculus; experiment: Receptor occupancy of mGlu5 receptor in mouse at 0.3 mg/kg, sc relative to control; format: functional
[18] = biological target: T1, Progesterone receptor (Homo sapiens) (UniProt P06401); experiment: Antagonist activity at progesterone receptor (unknown origin)
T1 sequence (whole entry): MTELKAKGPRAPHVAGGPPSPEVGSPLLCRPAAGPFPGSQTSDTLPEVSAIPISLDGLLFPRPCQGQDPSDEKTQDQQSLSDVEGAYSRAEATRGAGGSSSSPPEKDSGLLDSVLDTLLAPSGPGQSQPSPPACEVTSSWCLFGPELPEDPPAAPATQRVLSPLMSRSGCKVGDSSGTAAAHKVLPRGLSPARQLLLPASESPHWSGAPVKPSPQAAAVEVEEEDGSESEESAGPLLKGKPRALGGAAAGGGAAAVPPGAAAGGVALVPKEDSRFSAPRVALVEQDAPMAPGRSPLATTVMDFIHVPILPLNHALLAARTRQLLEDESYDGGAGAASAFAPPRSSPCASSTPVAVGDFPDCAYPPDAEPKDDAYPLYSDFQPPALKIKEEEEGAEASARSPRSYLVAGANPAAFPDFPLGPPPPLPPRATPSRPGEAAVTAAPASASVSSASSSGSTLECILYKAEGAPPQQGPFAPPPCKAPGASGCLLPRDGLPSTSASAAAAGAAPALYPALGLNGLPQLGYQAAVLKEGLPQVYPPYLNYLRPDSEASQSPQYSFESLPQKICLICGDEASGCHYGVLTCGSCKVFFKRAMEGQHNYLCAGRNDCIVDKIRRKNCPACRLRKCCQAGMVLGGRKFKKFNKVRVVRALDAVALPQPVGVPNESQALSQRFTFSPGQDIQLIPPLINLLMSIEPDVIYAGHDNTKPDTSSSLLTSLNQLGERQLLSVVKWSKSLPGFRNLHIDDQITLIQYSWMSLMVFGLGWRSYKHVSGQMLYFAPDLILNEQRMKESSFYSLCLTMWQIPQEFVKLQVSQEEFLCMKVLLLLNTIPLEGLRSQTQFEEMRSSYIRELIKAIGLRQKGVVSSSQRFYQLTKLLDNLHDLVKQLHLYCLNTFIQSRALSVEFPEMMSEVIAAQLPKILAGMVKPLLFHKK

[19] = biological target: Metabotropic glutamate receptor 2 (Homo sapiens) (UniProt Q14416); experiment: Agonist activity at mGlu2 receptor (unknown origin)
Chain of Metabotropic glutamate receptor 2 (Homo sapiens) (Q14416 19-872 limits assumed): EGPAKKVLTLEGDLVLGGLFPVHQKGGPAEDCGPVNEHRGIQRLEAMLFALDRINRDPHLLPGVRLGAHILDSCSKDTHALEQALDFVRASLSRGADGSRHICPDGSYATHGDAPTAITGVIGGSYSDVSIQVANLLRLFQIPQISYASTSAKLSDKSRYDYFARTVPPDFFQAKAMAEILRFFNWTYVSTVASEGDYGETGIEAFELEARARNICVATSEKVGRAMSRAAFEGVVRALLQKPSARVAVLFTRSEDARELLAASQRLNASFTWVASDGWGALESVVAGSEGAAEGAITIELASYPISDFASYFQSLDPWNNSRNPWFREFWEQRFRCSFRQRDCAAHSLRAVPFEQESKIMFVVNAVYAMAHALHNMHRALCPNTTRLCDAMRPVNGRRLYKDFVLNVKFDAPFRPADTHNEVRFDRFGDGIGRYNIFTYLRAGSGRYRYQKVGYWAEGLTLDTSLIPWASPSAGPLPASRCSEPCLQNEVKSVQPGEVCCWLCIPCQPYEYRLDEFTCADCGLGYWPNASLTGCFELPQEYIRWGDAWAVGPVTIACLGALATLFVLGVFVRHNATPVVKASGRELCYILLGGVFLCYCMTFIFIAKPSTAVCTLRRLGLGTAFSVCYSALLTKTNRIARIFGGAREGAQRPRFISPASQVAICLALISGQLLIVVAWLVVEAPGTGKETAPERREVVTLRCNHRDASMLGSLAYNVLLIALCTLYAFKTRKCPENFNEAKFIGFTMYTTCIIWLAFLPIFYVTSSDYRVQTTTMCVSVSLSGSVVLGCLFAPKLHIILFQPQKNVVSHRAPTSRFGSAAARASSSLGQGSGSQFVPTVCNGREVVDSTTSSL

[20] = test system: Brain; experiment: Total drug level in Sprague-Dawley rat brain at 0.1 mg/kg, sc; format: ADME, organism-based; conditions: in vivo, read-out: Drug uptake
[21] = test system: Canis familiaris; experiment: Toxicity in dog administered as repeated dosage for 5 days; format: organism-based, Canis lupus familiaris; conditions: in vivo, 120 h
[22] = biological target: Metabotropic glutamate receptor 7 (Homo sapiens) (UniProt Q14831); experiment: Agonist activity at mGlu7 receptor (unknown origin)
[23] = biological target: Metabotropic glutamate receptor 8 (Homo sapiens) (UniProt O00222); experiment: Negative allosteric modulation of mGlu8 receptor (unknown origin)
Chain of Metabotropic glutamate receptor 8 (Homo sapiens) (O00222 whole entry): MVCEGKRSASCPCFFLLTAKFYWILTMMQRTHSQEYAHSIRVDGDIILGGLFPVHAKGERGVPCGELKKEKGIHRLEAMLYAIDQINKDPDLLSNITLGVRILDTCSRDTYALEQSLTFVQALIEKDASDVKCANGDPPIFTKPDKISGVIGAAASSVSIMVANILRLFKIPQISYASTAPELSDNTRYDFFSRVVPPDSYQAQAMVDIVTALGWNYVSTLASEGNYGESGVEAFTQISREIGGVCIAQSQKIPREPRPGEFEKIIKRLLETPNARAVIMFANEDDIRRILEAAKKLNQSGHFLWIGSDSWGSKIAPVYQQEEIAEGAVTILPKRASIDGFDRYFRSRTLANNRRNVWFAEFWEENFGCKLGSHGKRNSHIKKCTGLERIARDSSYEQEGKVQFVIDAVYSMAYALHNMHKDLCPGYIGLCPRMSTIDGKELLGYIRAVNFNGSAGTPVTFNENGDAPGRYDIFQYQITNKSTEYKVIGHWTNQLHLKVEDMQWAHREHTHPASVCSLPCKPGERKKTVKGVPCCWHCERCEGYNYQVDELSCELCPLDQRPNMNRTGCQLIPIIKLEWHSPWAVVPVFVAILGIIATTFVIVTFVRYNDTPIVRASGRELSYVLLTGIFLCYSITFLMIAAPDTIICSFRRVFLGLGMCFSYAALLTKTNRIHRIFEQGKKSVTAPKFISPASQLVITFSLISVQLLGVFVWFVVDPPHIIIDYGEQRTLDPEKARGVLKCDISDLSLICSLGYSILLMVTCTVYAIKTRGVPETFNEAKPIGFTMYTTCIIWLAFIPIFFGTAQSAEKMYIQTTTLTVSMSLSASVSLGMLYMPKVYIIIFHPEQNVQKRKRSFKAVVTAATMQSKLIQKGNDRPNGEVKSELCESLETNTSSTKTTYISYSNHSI

[24] = Clearance in rat at 1 mg/kg, iv; format: ADME, organism-based; conditions: in vivo
[25] = Inhibition of human recombinant CYP450; format: ADME
[26] = biological target: Metabotropic glutamate receptor 3 (Homo sapiens) (UniProt Q14832); experiment: Positive allosteric modulation of mGlu3 receptor (unknown origin)
Chain of Metabotropic glutamate receptor 3 (Homo sapiens) (Q14832 23-879 limits assumed): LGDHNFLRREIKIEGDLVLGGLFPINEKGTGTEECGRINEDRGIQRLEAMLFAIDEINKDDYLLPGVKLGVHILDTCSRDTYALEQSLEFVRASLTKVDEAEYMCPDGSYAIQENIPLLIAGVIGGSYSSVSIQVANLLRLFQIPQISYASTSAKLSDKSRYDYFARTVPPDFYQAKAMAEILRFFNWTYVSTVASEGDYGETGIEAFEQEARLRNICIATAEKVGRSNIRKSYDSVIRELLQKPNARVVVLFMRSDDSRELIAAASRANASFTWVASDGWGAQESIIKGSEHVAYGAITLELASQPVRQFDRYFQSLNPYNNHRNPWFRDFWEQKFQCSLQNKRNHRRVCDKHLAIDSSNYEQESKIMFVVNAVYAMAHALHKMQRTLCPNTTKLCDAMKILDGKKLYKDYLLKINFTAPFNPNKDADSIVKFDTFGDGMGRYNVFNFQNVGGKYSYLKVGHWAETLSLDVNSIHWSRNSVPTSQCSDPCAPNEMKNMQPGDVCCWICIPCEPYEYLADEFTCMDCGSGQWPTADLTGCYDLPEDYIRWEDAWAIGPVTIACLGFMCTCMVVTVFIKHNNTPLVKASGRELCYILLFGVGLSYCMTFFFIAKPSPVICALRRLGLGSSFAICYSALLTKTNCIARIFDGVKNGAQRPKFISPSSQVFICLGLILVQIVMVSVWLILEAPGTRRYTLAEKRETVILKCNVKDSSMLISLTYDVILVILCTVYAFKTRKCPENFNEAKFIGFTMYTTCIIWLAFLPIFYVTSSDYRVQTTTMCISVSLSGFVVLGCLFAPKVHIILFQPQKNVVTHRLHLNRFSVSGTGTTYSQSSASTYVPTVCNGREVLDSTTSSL

[27] = biological target: T1, Progesterone receptor (Homo sapiens); experiment: Agonist activity at progesterone receptor (unknown origin)
[28] = biological target: Metabotropic glutamate receptor 7 (Homo sapiens) (UniProt Q14831); experiment: Negative allosteric modulation of mGlu7 receptor (unknown origin)
[29] = Cmax in rat at 100 mg/kg, po measured on day1; format: ADME, organism-based; parameters: dose 100 mg/kg, route oral; conditions: in vivo
[30] = biological target: Metabotropic glutamate receptor 3 (Homo sapiens) (UniProt Q14832); experiment: Agonist activity at mGlu3 receptor (unknown origin)
[31] = biological target: Metabotropic glutamate receptor 8 (Homo sapiens) (UniProt O00222); experiment: Agonist activity at mGlu8 receptor (unknown origin)
[32] = biological target: Metabotropic glutamate receptor 3 (Homo sapiens) (UniProt Q14832); experiment: Negative allosteric modulation of mGlu3 receptor (unknown origin)
[33] = test system: Mus musculus; experiment: Cognitive enhancement effect in mouse assessed as reduction in time spent with familiar object in retention session at 0.3 to 3 mg/kg, sc treated for 60 mins prior to acquisition session measured after 24 hrs for 10 mins by novel object recognition assay; format: functional; conditions: read-out: MED
[34] = test system: Plasma; experiment: Total plasma concentration in Sprague-Dawley rat at 0.1 mg/kg, sc; format: ADME, organism-based; conditions: in vivo
[35] = test system: Mus musculus; experiment: Ex vivo receptor occupancy of mGlu5 receptor in C57/BL6 mouse at 10 to 30 mg/kg, ip relative to control; format: functional
[36] = Oral bioavailability in rat at 1 mg/kg; format: ADME, organism-based; conditions: in vivo
[37] = test system: Brain; experiment: Total drug level in mouse brain at 0.3 mg/kg, sc; format: ADME, organism-based; conditions: in vivo, read-out: Drug uptake
[38] = Volume of distribution at steady state in rat at 1 mg/kg, iv; format: ADME, organism-based; conditions: in vivo, read-out: Vdss
[39] = test system: Rattus norvegicus; experiment: Toxicity in rat administered as repeated dosage for 2 weeks; format: organism-based; conditions: in vivo, 336 h
[40] = Oral bioavailability in dog at 1 mg/kg; format: ADME, organism-based, Canis lupus familiaris; conditions: in vivo
[41] = Ratio of drug level in brain to plasma in rat at 1 mg/kg, iv; format: ADME, organism-based; conditions: read-out: BPR
[42] = biological target: Metabotropic glutamate receptor 1 (Homo sapiens) (UniProt Q13255); experiment: Negative allosteric modulation of mGlu1 receptor (unknown origin)
Chain of Metabotropic glutamate receptor 1 (Homo sapiens) (Q13255 19-1194 limits assumed): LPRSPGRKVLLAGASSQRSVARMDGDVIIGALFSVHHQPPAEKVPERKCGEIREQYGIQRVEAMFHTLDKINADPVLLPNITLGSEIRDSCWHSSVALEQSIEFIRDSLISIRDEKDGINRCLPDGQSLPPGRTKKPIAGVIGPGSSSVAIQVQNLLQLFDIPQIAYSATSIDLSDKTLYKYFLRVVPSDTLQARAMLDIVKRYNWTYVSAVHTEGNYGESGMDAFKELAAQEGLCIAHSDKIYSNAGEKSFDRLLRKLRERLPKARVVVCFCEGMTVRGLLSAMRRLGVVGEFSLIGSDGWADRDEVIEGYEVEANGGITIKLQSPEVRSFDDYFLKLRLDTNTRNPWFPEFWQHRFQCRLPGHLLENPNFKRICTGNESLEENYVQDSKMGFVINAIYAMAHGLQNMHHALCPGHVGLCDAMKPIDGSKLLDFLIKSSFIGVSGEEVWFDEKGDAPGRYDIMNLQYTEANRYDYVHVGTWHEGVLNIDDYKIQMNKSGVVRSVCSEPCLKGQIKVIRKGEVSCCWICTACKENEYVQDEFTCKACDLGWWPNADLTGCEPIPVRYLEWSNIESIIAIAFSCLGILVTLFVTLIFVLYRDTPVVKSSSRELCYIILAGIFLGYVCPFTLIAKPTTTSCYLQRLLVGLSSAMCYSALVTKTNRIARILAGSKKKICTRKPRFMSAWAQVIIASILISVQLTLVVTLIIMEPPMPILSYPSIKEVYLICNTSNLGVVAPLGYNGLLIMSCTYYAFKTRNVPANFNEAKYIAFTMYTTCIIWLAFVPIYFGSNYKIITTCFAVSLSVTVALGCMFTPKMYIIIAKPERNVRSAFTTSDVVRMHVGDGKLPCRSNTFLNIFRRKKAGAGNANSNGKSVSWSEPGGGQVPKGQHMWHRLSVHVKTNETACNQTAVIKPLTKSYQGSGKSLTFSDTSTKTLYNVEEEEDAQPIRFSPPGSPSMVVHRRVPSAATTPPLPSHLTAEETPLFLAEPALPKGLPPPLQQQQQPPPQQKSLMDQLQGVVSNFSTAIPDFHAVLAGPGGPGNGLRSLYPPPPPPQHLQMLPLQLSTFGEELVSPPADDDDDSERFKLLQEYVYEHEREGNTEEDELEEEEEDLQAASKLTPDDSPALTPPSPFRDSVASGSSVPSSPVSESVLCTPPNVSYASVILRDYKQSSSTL

[43] = biological target: Metabotropic glutamate receptor 6 (Homo sapiens) (UniProt O15303); experiment: Positive allosteric modulation of mGlu6 receptor (unknown origin)
[44] = biological target: Metabotropic glutamate receptor 2 (Homo sapiens) (UniProt Q14416); experiment: Positive allosteric modulation of mGlu2 receptor (unknown origin)
[45] = biological target: Metabotropic glutamate receptor 8 (Homo sapiens) (UniProt O00222); experiment: Positive allosteric modulation of mGlu8 receptor (unknown origin)
[46] = biological target: Metabotropic glutamate receptor 4 (Homo sapiens) (UniProt Q14833); experiment: Agonist activity at mGlu4 receptor (unknown origin)
[47] = AUC (0 to 24 hrs) in rat at 100 mg/kg, po measured on day1; format: ADME, organism-based; parameters: time < 24 hr, dose 100 mg/kg, route oral; conditions: in vivo
[48] = biological target: Metabotropic glutamate receptor 1 (Homo sapiens) (UniProt Q13255); experiment: Positive allosteric modulation of mGlu1 receptor (unknown origin)
[49] = test system: Plasma; experiment: Total plasma concentration in mouse at 0.3 mg/kg, sc; format: ADME, organism-based; conditions: in vivo
[50] = test system: Rattus norvegicus; experiment: Reversal of NMDA antagonist MK-801-induced deficits in set shift performance in Sprague-Dawley rat assessed as reduction in number of trial required to achieve 8 consecutive correct selection at 0.1 to 3 mg/kg, sc pretreated for 25 mins followed by MK-801 injection measured after 35 mins by wisconsin card sorting test; format: functional; conditions: read-out: MED
[51] = biological target: Metabotropic glutamate receptor 2 (Homo sapiens) (UniProt Q14416); experiment: Negative allosteric modulation of mGlu2 receptor (unknown origin)
[52] = biological target: Voltage-gated inwardly rectifying potassium channel KCNH2 (Homo sapiens, UniProt Q12809); experiment: Inhibition of human ERG by patch clamp method
[53] = biological target: Metabotropic glutamate receptor 1 (Homo sapiens) (UniProt Q13255); experiment: Agonist activity at mGlu1 receptor (unknown origin)
[54] = biological target: T2, Progesterone receptor (Homo sapiens, UniProt P06401); experiment: Inhibition of progesterone receptor (unknown origin)
T2 sequence (P06401 whole entry): T1 sequence (whole entry)

[55] = biological target: T3, Metabotropic glutamate receptor 5 (Homo sapiens, UniProt P41594)
Description: Agonist activity at human mGlu5A receptor expressed in HEK293 cells coexpressing rat glutamate-aspartate transporter assessed as induction of Ca2+ release by calcium 4 dye based FLIPR assay

[56] = biological target: T3, Metabotropic glutamate receptor 5; experiment: Displacement of [3H]MPEP in mGlu5 receptor (unknown origin) incubated for 60 mins by liquid scintillation counting method
[57] = biological target: T3, Metabotropic glutamate receptor 5; remark: listed apart in the source
Description: Positive allosteric modulation of human mGlu5A receptor expressed in HEK293 cells coexpressing rat glutamate-aspartate transporter assessed as potentiation of L-glutamate-induced Ca2+ signal incubated for 60 mins by calcium 4 dye based FLIPR assay

O=C1N[C@H](c2cncc(C#Cc3ccccc3)c2)[C@@H](c2cccc(F)c2)O1
fraction unbound [1]: 0.004 | Activity [2]: Toxic | Activity [3]: Toxic

O=C1N[C@H](c2cncc(C#Cc3ccccc3)c2)[C@@H](c2cc(F)ccc2F)O1
Activity [4]: > 10 µM | fraction unbound [1]: 0.007 | Activity [5]: > 10 µM | Activity [6]: Non-toxic | Activity [7]: > 10 µM | Activity [8]: Non-toxic | Activity [9]: Non-toxic | Activity [10]: > 10 µM | Activity [11]: Non-toxic | Occ [12]: 19% | Activity [13]: > 10 µM | bioavailability [14]: 50% | inhibition [15]: 40% | Activity [16]: Non-toxic | Occ [17]: 18% | inhibition [18]: inactive | Activity [19]: > 10 µM | concentration [20]: 34 nM | Activity [21]: Non-toxic | Activity [22]: > 10 µM | Activity [23]: > 10 µM | clearance [24]: 11 mL/min/kg | pIC50 [25]: ≤ 5.89 | Activity [26]: > 10 µM | Activity [27]: inactive | Activity [28]: > 10 µM | Cmax [29]: 41000 nM | Activity [30]: > 10 µM | Activity [31]: > 10 µM | Activity [32]: > 10 µM | minimal effective dose [33]: 0.3 mg/kg | concentration [34]: 34 nM | Occ [35]: 94% | bioavailability [36]: 100% | concentration [37]: 178 nM | Vd [38]: 1.8 L/kg | Activity [39]: Non-toxic | bioavailability [40]: 68% | Kp [41]: 1 | Activity [42]: > 10 µM | Activity [43]: > 10 µM | Activity [44]: > 10 µM | Activity [45]: > 10 µM | Activity [46]: > 10 µM | AUC(0-t) at 24 h [47]: 751 µM·h | Activity [48]: > 10 µM | concentration [49]: 116 nM | minimal effective dose [50]: 0.1 mg/kg | Activity [51]: > 10 µM | pIC50 [52]: 5.44 | Activity [53]: > 10 µM | pIC50 [54]: 5.64

O=C1N[C@H](c2cccc(C#Cc3ccccc3)c2)[C@@H](c2cccc(F)c2)O1
pEC50 [55]: < 4.52 | pKi [56]: 8.19 | pEC50 [57]: 7.82
